From ChEMBL document CHEMBL1201862, “PubChem BioAssay data set” (2004) come the findings set out here.

Each structure is given as a SMILES string.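 96-well plates; 48 h exposure; 5 concentrations. Endpoints by linear interpolation between flanking doses. Not reached: highest tested concentration assigned. Abbreviation: GI50, concentration required for 50% inhibition of growth.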 Activity calls are given as the source filed them. No stated cut-off is given here; in the data, active = GI50 up to about 1.1 µM and inactive = higher. A value given as a limit tells only on which side of the number the result lay.

Among the test systems are OVCAR-8; HOP-62; NCI-H23; OVCAR-4; DU-145; ACHN; RPMI-8226; UACC-257; A549; TK-10; NCI-H226; RXF 393; CCRF-CEM; A498; 786-0; SN12C; OVCAR-3; HOP-92; OVCAR-5; NCI-H460.
Common to all, as to assay: DTP human tumour cell line panel, 48 h

For `COc1cc(C2CC(C)(O)Oc3cc4c(cc32)OCO4)cc(OC)c1OC` (centres undefined), the GI50 with OVCAR-8 is 0.421 µM (active); with HOP-62, 0.501 µM (active); in the test with NCI-H23, 0.474 µM (active); in the test with OVCAR-4 it was 0.938 µM (active); with DU-145, 0.546 µM (active); in the test with ACHN, 0.708 µM (active). The GI50 in the test with RPMI-8226 is 0.325 µM (active); in the test with UACC-257, 0.822 µM (active); in the test with A549, 2.49 µM (inactive); in the test on TK-10, 61 µM (inactive); in the test with NCI-H226 it was 0.891 µM (active); in the test on RXF 393, 0.137 µM (active). Besides, the GI50 with CCRF-CEM was 0.34 µM (active); in the test with A498, 4.6 µM (inactive); in the test on 786-0, 0.375 µM (active); in the test on SN12C, 0.977 µM (active); in the test on OVCAR-3, 0.315 µM (active); in the test on HOP-92, 2.56 µM (inactive). Further, the GI50 with OVCAR-5 was 10.9 µM (inactive); with NCI-H460 it was 0.389 µM (active).
As for `COC(=O)/C=C1/OC(c2ccccc2)=C(Cl)C1=O`, the GI50 with OVCAR-8 is 21.3 µM (inactive); with HOP-62, 25.9 µM (inactive); in the test on NCI-H23, 19.4 µM (inactive); with OVCAR-4 it was 20.7 µM (inactive); with DU-145 it was 29 µM (inactive); in the test on ACHN, 17.7 µM (inactive). For the same compound, the GI50 in the test on RPMI-8226 was 7.33 µM (inactive); in the test on UACC-257, 24.9 µM (inactive); in the test with A549, 26.4 µM (inactive); with TK-10 it was 31.9 µM (inactive); in the test on NCI-H226 it was 27.5 µM (inactive); with RXF 393, 15.7 µM (inactive). For the same compound, the GI50 in the test with CCRF-CEM is 5.58 µM (inactive); in the test on A498 it was 29.4 µM (inactive); in the test with 786-0 it was 18.3 µM (inactive); in the test with SN12C, 23.1 µM (inactive); with OVCAR-3 it was 16.7 µM (inactive); with HOP-92, 20 µM (inactive). Also, the GI50 with OVCAR-5 is 19 µM (inactive); in the test on NCI-H460, 25 µM (inactive).
On to `CC1=C2C(=O)OCC23C=COC3(C)O1` (centres undefined), for which the GI50 was 35.4 µM (inactive) in the test with OVCAR-8; 34.2 µM (inactive) with HOP-62; 39 µM (inactive) in the test with NCI-H23; 29.4 µM (inactive) with OVCAR-4; 39.4 µM (inactive) in the test with DU-145; 34.3 µM (inactive) in the test with ACHN. The GI50 was 32.5 µM (inactive) in the test with RPMI-8226; 32.7 µM (inactive) in the test with UACC-257; 66.7 µM (inactive) with A549; 42 µM (inactive) in the test with TK-10; 28.4 µM (inactive) with NCI-H226; 31.4 µM (inactive) in the test with RXF 393. The GI50 with CCRF-CEM is 33.5 µM (inactive); in the test on A498, 43.3 µM (inactive); in the test on 786-0, 35.6 µM (inactive); with SN12C, 37.7 µM (inactive); in the test with OVCAR-3, 33.4 µM (inactive); with HOP-92, 45 µM (inactive). In addition, the GI50 is 47.1 µM (inactive) with OVCAR-5 and 48.4 µM (inactive) in the test on NCI-H460.
`O=c1c2cc([N+](=O)[O-])ccc2[nH]n1Cc1ccccn1`: the GI50 in the test on OVCAR-8, in the test on HOP-62, in the test with NCI-H23, with OVCAR-4, in the test on DU-145 and with ACHN was > 100 µM (inactive) each time. Moreover, the GI50 in the test on RPMI-8226, in the test on UACC-257, with A549, with TK-10, in the test with NCI-H226 and in the test with RXF 393 was > 100 µM (inactive) throughout. In addition, the GI50 in the test with CCRF-CEM, with A498, in the test on 786-0, in the test with SN12C, in the test on OVCAR-3 and in the test with HOP-92 was > 100 µM (inactive) throughout. Besides, the GI50 in the test with OVCAR-5 and in the test on NCI-H460 was > 100 µM (inactive) throughout.
As to `C#CCn1c(=O)c2ccccc2n(CC#C)c1=O`, the GI50 in the test with OVCAR-8, in the test on HOP-62, in the test with NCI-H23, with OVCAR-4, in the test with DU-145 and in the test on ACHN was > 10 µM (inactive) each time. Besides, the GI50 with RPMI-8226, in the test on UACC-257, in the test on A549, with TK-10, in the test with NCI-H226 and in the test with RXF 393 was > 10 µM (inactive) each time. In addition, the GI50 with CCRF-CEM, in the test on A498, in the test with 786-0, in the test with SN12C, in the test on OVCAR-3 and in the test on HOP-92 was > 10 µM (inactive) in each case. The GI50 in the test with OVCAR-5 and with NCI-H460 was > 10 µM (inactive) throughout.
Take `CC(=O)O[C@H]1C(=O)[C@@]2(C)[C@H]([C@H](OC(=O)c3ccccc3)[C@]3(O)C[C@H](OC(=O)[C@H](O)[C@@H](NC(=O)c4ccc(N(C)C)cc4)c4ccccc4)C(C)=C1C3(C)C)[C@]1(OC(C)=O)CO[C@@H]1C[C@@H]2O`: the GI50 was < 0.005 µM (active) with OVCAR-8; 0.0136 µM (active) in the test on HOP-62; 0.00849 µM (active) with NCI-H23; 2.92 µM (inactive) in the test on OVCAR-4; < 0.005 µM (active) in the test on DU-145; 0.0718 µM (active) in the test on ACHN. The GI50 in the test with RPMI-8226 was < 0.005 µM (active); with A549, < 0.005 µM (active); in the test on TK-10 it was 0.0723 µM (active); in the test with NCI-H226, 0.008 µM (active); with RXF 393, 0.00887 µM (active); with CCRF-CEM, < 0.005 µM (active). The GI50 with A498 was 0.0428 µM (active); with 786-0, < 0.005 µM (active); in the test with SN12C, < 0.005 µM (active); in the test with OVCAR-3 it was < 0.005 µM (active); in the test on HOP-92, > 28.8 µM (inactive); in the test with OVCAR-5 it was < 0.005 µM (active). Besides, the GI50 with NCI-H460 is < 0.005 µM (active).
With `CC(C)C[C@H](NC(=O)[C@H](Cc1cccc2ccccc12)NS(=O)(=O)c1cccc2cccnc12)B(O)O`, the GI50 in the test on OVCAR-8 was 0.0557 µM (active); in the test on HOP-62 it was 0.0444 µM (active); in the test with NCI-H23 it was < 0.0226 µM (active); with OVCAR-4 it was 0.0109 µM (active); in the test on DU-145 it was 0.0445 µM (active); in the test on ACHN, 0.0327 µM (active). Moreover, the GI50 in the test on RPMI-8226 was < 0.01 µM (active); in the test with UACC-257, 0.0103 µM (active); with A549, 0.0435 µM (active); with TK-10, < 0.0285 µM (active); in the test on NCI-H226 it was 0.000208 µM (active); in the test with RXF 393, < 0.015 µM (active). The GI50 was < 0.01 µM (active) with CCRF-CEM; < 0.0147 µM (active) in the test on A498; 0.0222 µM (active) with 786-0; < 0.0122 µM (active) in the test with SN12C; < 0.0111 µM (active) in the test on OVCAR-3; 0.00726 µM (active) in the test on HOP-92. In addition, the GI50 in the test with OVCAR-5 is < 0.0142 µM (active); in the test with NCI-H460, 0.0893 µM (active).
